The source of these data is patent US11117891B2, “Isoquinolin and naphthydrin compounds” (Eli Lilly and Company, priority 2017, dated 2021).

In assay [1] the target is recombinant human ASK1 (hASK1) catalytic domain (Homo sapiens (Human), UniProt Q99683). Put plainly: ASK1 enzymatic assay (ADP-Glo Kinase Assay). The following applies: for IC50: ADP production, MKK6 300 nM substrate, ATP 100 uM, mean ± standard deviation; for Efficacy (%): hASK1 enzymatic assay, relative to standard inhibitor (100%) and DMSO vehicle (0%). In kind it is biochemical. The text has this:
The purpose of this assay is to determine the effect of ASK1 inhibitors on the production of ADP by ASK1. The recombinant human ASK1 (hASK1) catalytic domain tagged with Glutathione S-transferase is used, and histidine-tagged full-length human MAP kinase kinase 6 (MKK6) and ATP are the substrate and cofactor, respectively.
The assay is done using an ADP-Glo™ Kinase Assay Kit (Promega, Catalog #V9102) according to the manufacturer's protocol with the following modifications. Briefly, hASK1 (0.25 nM) and MKK6 (300 nM) in a buffer (10 mM MOPS pH 7.0; 10 mM Mg-Acetate; 1 mM DTT; 0.025% NP-40; 0.05% BSA; 1.5% glycerol) are incubated with ASK1 inhibitors at varying concentrations ranging from 10.00 uM to 0.17 nM for 15 minutes, followed by incubation with ATP (100 uM) for 30 minutes at room temperature. ADP-Glo™ Reagent is added to terminate the kinase reaction and deplete the remaining ATP. The Kinase Detection Reagent is then added to convert ADP to ATP. The newly synthesized ATP is measured using a luciferase/luciferin reaction, and the luminescence determined by Envision (PerkinElmer). The luminescence intensities are analyzed by GeneData, and fit to a 4 parameter dose response-inhibitor logistics curve to determine IC50 values, using the effects of 5-(4-cyclopropyl-1H-imidazol-1-yl)-2-fluoro-4-methyl-N-{6-[4-(propan-2-yl)-4H-1,2,4-triazol-3-yl]pyridin-2-yl}benzamide as a standard and DMSO vehicle for 100% and 0% inhibition, respectively.
For orientation: ADP-Glo turns the ADP formed in a reaction into a luminescent signal.

The target in assay [2] is human ASK1 (Homo sapiens (Human), UniProt Q99683). Put plainly: ASK1 autophosphorylation (Thr838) assay in HEK293 cells overexpressing human ASK1. In kind it is cell-based. To be noted: for IC50: H2O2-stimulated (1 mM, 10 min) ASK1 autophosphorylation at Thr838, HEK293 cells, HTRF, mean ± standard deviation, read-out: HEK pASK1 IC50; for Efficacy (%): HEK pASK1 assay, relative to standard inhibitor (100%) and DMSO vehicle (0%). For orientation: TR-FRET usually uses a lanthanide donor and a delayed reading to cut background.
Chain of human ASK1 (Q99683 whole entry): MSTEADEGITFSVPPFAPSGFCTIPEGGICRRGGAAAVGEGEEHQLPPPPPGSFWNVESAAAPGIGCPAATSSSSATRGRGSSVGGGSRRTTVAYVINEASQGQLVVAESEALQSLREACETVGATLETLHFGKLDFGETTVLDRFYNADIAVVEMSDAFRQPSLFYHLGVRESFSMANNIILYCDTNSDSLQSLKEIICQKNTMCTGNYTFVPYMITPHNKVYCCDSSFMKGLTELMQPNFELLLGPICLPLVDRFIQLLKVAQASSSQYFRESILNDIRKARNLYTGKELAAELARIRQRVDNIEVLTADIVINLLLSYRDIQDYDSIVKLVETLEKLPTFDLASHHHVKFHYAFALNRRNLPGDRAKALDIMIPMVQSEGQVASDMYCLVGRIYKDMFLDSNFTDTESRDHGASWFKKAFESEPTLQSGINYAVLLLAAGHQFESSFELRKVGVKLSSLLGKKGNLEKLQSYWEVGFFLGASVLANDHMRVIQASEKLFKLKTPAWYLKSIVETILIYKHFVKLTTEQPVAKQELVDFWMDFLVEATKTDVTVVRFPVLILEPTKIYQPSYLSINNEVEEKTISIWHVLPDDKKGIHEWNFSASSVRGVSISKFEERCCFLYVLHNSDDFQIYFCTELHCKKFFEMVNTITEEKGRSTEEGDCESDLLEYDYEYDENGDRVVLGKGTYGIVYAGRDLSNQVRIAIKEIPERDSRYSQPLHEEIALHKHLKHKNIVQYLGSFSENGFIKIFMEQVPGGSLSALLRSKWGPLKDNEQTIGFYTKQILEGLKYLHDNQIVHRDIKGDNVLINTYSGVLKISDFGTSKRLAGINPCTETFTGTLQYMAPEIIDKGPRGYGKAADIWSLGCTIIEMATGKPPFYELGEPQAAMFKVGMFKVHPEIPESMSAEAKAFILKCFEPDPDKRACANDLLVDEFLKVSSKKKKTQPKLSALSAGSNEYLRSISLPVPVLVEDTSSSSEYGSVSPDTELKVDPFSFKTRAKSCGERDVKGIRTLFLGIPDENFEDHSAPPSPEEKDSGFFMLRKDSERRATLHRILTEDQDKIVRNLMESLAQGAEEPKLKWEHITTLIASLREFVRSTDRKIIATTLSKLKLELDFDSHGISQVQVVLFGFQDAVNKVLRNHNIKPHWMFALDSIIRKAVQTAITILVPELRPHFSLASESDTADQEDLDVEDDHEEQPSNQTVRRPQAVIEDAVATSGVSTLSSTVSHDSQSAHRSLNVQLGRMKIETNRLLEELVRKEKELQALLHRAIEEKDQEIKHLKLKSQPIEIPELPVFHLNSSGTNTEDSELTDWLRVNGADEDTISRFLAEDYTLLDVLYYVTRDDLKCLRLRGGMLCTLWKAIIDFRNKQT

Chain of recombinant human ASK1 (hASK1) catalytic domain (Q99683 680-938): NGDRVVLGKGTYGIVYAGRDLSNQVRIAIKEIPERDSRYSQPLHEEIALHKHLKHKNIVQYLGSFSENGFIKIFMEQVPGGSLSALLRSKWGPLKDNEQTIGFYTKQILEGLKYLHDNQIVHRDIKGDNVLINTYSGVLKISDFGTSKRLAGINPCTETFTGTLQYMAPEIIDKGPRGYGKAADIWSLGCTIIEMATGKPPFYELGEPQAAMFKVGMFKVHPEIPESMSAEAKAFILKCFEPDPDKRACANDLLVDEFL

In the case of `Cc1cc2c(cc1-c1cnn(C(C)C)c1)C(=O)N(c1cccc(-c3nncn3C(C)C)n1)CC2` [Example 1, 7-(1-Isopropylpyrazol-4-yl)-2-[6-(4-isopropyl-1,2,4-triazol-3-yl)-2-pyridyl]-6-methyl-3,4-dihydroisoquinolin-1-one], in assay [1], the IC50 came to 3.6 ± 0.8 nM and the “Efficacy (%)” value is listed as 101%. Also, in assay [2], the IC50 stood at 38.6 ± 2.4 nM and the “Efficacy (%)” value is 107%.
For the molecule `Cc1cc2c(cc1-n1cnc(C3CC3)c1)C(=O)N(c1cccc(-c3nncn3C(C)C)n1)CC2` [Example 2, 7-(4-Cyclopropylimidazol-1-yl)-2-[6-(4-isopropyl-1,2,4-triazol-3-yl)-2-pyridyl]-6-methyl-3,4-dihydroisoquinolin-1-one], the IC50 in assay [1] was 1.8 ± 0.4 nM; in assay [2] it was 13.1 ± 2.8 nM. The figures for the “Efficacy (%)” value in assay [1] and in assay [2] were 100.5% and 103%, respectively.
`CC(C)n1cnnc1-c1cccc(N2CCc3ncc(-n4cnc(C5CC5)c4)cc3C2=O)n1.Cl` [Example 3, 3-(4-Cyclopropylimidazol-1-yl)-6-[6-(4-isopropyl-1,2,4-triazol-3-yl)-2-pyridyl]-7,8-dihydro-1,6-naphthyridin-5-one; hydrochloride]: in assay [1], the 50% inhibitory concentration (IC50) came out at 3.8 ± 0.9 nM and the “Efficacy (%)” value worked out at 100.1%. Also, in assay [2], the IC50 was determined as 31.5 ± 6.6 nM and the “Efficacy (%)” value came to 107%.
As to `CC(C)n1cc(-c2cnc3c(c2)C(=O)N(c2cccc(-c4nncn4C(C)C)n2)CC3)cn1` [Example 4, 3-(1-Isopropylpyrazol-4-yl)-6-[6-(4-isopropyl-1,2,4-triazol-3-yl)-2-pyridyl]-7,8-dihydro-1,6-naphthyridin-5-one], in assay [1], the IC50 stood at 4.2 ± 0.8 nM and the “Efficacy (%)” value is 99.8%. Further, in assay [2], the IC50 was 41.9 ± 0.5 nM and the “Efficacy (%)” value came to 105%.

One may read the IC50 as the midpoint of a concentration-inhibition curve.
